Assay results from patent US20260193265A1, “Phyllochlorin analogues suitable for use in photodynamic therapy (PDT)” (RMW CHO Group Limited, priority 2022, published 2026).
Structures can show the parent of a compound that is named as a salt. Where two headings read alike, the source gives them in different places.

Legend:
[1] = test system: Human ovarian cancer cell line SKOV3
[2] = test system: Human ovarian cancer cell line SKOV3; test: Phototoxicity in SKOV3 cells after 652 nm laser activation (AlamarBlue viability); type: cell-based; details: for range of phototoxicity IC90 values in vitro: result in words
Method: Samples were stored at 4° C. protected from light.
All data are shown as mean±SD (where appropriate).
To test for phototoxicity, cells incubated with phyllochlorin analogues (0-10 μM in DMSO) had culture media replaced after 24 hours (as above) and were then exposed to a 652 nm laser (Invion) with laser density at 50 mW/cm^2 for 5 mins (total 15 J/cm^2). Following activation, cells were cultured for a further 24 hours. Media was then replaced with fresh media containing AlamarBlue, and % viable cells remaining assessed as above. Controls included cells treated with phyllochlorin analogues but not activated by laser light; cells without phyllochlorin analogue treatment but with laser light; and untreated controls. All measurements were made in quadruplicate.

[3] = test system: Human ovarian cancer cell line SKOV3; test: Inherent cytotoxicity (dark toxicity) in SKOV3 cells (AlamarBlue viability); details: 24 hours incubation, no light, AlamarBlue 6 hours
Method: Photosensitizers (e.g. phyllochlorin analogue, chlorin e4 disodium (provided by Advanced Molecular Technologies, Scoresby) or Talaporfin sodium (purchased from Focus Bioscience cat #HY-16477-5MG)) were resuspended in 100% dimethylsulfoxide (DMSO) at a concentration of 5.5 mM. Samples were stored at 4° C. protected from light.
For in vitro experiments, photosensitizers (stock solution 5.5 mM in 100% DMSO) were diluted 1:100 in concentrated excipient solution (final 55 μM photosensitizer in 10% w/v Kollidon-12, 42.4% w/v polysorbate 80, 0.6% w/v citric acid anhydrous, 40% w/v ethanol, 1.0% DMSO). Serial dilutions were prepared in cell culture media (Dulbecco's Modified Eagle Medium/Nutrient Mixture F-12 (DMEM/F-12)) supplemented with 10% v/v Fetal Bovine Serum, 100 U/mL penicillin, 100 μg/mL streptomycin and the same excipient solution at a constant 1:55 dilution.
Human ovarian cancer cell line SKOV3 (ATCC #HTB-77) was maintained in Dulbecco's Modified Eagle Medium/Nutrient Mixture F-12 (DMEM/F-12), supplemented with 10% v/v Fetal Bovine Serum, 100 U/mL penicillin and 100 μg/mL streptomycin. Monolayer cultures were grown in a humidified incubator at 37° C. with 5% CO2. Once cells had reached ~80% confluence, spent media was replaced with media containing photosensitizer at the required concentration and cells were incubated for the desired period of time to allow photosensitizer uptake.
All data were analysed using GraphPad PRISM v8.3.1 (549) (GraphPad Software, CA). Spectral absorbance and viability measurements were normalized in the range 0-100%, with a minimum of 0 and a maximum value determined from the dataset. Dose response was determined using a sigmoidal four-point non-linear regression with variable slope, and IC10 or IC90 calculated for each compound. All data are shown as mean±SD (where appropriate).
SKOV3 cells were seeded in 96-well black wall plates (Greiner #655090) at a cell density of 5000 cells in 100 μl culture medium per well. On reaching ~60% confluence, media was aspirated and replaced with fresh media containing the relevant phyllochlorin analogue from 0-100 μM in DMSO. Cells were incubated for a further 24 hours, allowing uptake of phyllochlorin analogues.
To test for inherent cytotoxicity (i.e. “dark toxicity”) of the phyllochlorin analogues, the culture media was replaced after 24 hours with fresh media containing 10% (v/v) AlamarBlue Cell Viability Reagent (ThermoFisher) and cells incubated at 37° C. for 6 hours. Untreated cells were used as a control. Fluorescence (Ex 555 nm/Em 596 nm) was measured using a Cytation 3 Cell Imaging Multi-Mode Reader (Biotek), and cytotoxicity assessed according to the % viable cells remaining. All measurements were made in quadruplicate.
The phototoxicity and inherent cytotoxicity (i.e. “dark toxicity”) of several phyllochlorin analogues were assessed as previously using SKOV3 ovarian cancer cells. For comparative purposes, phyllochlorin analogues were compared against chlorin e4 disodium and Talaporfin sodium, a clinically approved photosensitizer used in the photodynamic treatment of lung cancers. Phototoxicity IC90 values and dark toxicity IC10 values were calculated using a log[inhibitor]-vs normalized response dose curve with variable slope, using the formula Y=100/(1+(IC90/X)^HillSlope (phototoxicity IC90)) or Y=100/(1+(IC10/X)^HillSlope (dark toxicity IC10)).

[4] = Homo sapiens, SK-OV-3, light or radiation study, 652 nm laser, read-out: apparent phototoxicity IC90
[5] = Homo sapiens, SK-OV-3, light or radiation study, 24 hours uptake, 652 nm laser 50 mW/cm^2 for 5 mins (total 15 J/cm^2), viability 24 hours after activation, read-out: Phototoxicity μM (IC90)

Row | Structure (SMILES) | Dark toxicity μM (IC10) [1] [µM] | IC90 ([2]; 24 hours uptake, 652 nm laser 50 mW/cm^2 for 5 mins (total 15 J/cm^2), viability 24 hours after activation, read-out: Phototoxicity μM (IC90)) [µM] | range of phototoxicity IC90 values in vitro [2] | Dark toxicity μM (IC10) ([1]; human, 24 h) [µM] | IC90 [2, 4] [µM] | IC90 [2, 5] [µM] | Dark toxicity μM (IC10) [3] [µM]
1 | C=Cc1c(C)c2cc3nc(c(C)c4[nH]c(cc5nc(cc1[nH]2)C(C)=C5CC)c(C)c4C(=O)O)[C@@H](CCC(=O)O)[C@@H]3C [Chlorin e4 disodium, reference compound] | 40.23 | 21.3 | μM range |  |  |  | 
2 | C=Cc1c(C)c2cc3nc(c(C)c4cc(C)c(cc5nc(cc1[nH]2)C(C)=C5CC)[nH]4)[C@@H](CCCS[C@@H]1O[C@H](CO)[C@@H](O)[C@H](O)[C@H]1O)[C@@H]3C [Compound 5] |  |  |  | 13.18 | < 0.1 | 0.05 | 
3 | C=Cc1c(C)c2cc3nc(c(C)c4cc(C)c(cc5nc(cc1[nH]2)C(C)=C5CC)[nH]4)[C@@H](CCC[P+](c1ccccc1)(c1ccccc1)c1ccccc1)[C@@H]3C [Compound 10, phyllochlorin 3-triphenylphosphoniumpropyl iodide] |  |  |  |  |  | 0.003 | 4.52
4 | C=Cc1c(C)c2cc3nc(c(C)c4cc(C)c(cc5nc(cc1[nH]2)C(C)=C5CC)[nH]4)[C@@H](CCCO)[C@@H]3C [Compound 1, 3-((7S,8S)-18-ethyl-2,5,8,12,17-pentamethyl-13-vinyl-7H,8H-porphyrin-7-yl)propan-1-ol] |  |  |  | 46.10 |  | 0.12 | 
5 | C=Cc1c(C)c2cc3nc(c(C)c4cc(C)c(cc5nc(cc1[nH]2)C(C)=C5CC)[nH]4)[C@@H](CCCSCCCS[C@@H]1O[C@H](CO)[C@@H](O)[C@H](O)[C@H]1O)[C@@H]3C [Compound 4, (2S,3R,4S,5S,6R)-2-((3-((3-((7S,8S)-18-ethyl-2,5,8,12,17-pentamethyl-13-vinyl-7H,8H-porphyrin-7-yl)propyl)thio)propyl)thio)-6-(hydroxymethyl)tetrahydro-2H-pyran-3,4,5-triol] |  |  |  | 23.13 | < 0.1 | 0.07 | 
6 | C=Cc1c(C)c2cc3nc(c(C)c4cc(C)c(cc5nc(cc1[nH]2)C(C)=C5CC)[nH]4)[C@@H](CCCOC(C)=O)[C@@H]3C [Compound 2, 3-((7S,8S)-18-ethyl-2,5,8,12,17-pentamethyl-13-vinyl-7H,8H-porphyrin-7-yl)propyl acetate] |  |  |  | 66.93 |  | 0.48 | 
7 | C=Cc1c(C)c2cc3nc(c(C)c4cc(C)c(cc5nc(cc1[nH]2)C(C)=C5CC)[nH]4)[C@@H](CCCN)[C@@H]3C [Compound 7, phyllochlorin 3-aminopropyl] |  |  |  | 11.55 | < 0.1 | 0.05 | 
8 | C=Cc1c(C)c2cc3nc(c(CC(=O)N[C@@H](CC(=O)O)C(=O)O)c4[nH]c(cc5nc(cc1[nH]2)C(C)=C5CC)c(C)c4C(=O)O)[C@@H](CCC(=O)O)[C@@H]3C [Talaporfin sodium, reference compound] |  |  | μM range | 11.10 |  |  | 
9 | C=Cc1c(C)c2cc3nc(c(C)c4cc(C)c(cc5nc(cc1[nH]2)C(C)=C5CC)[nH]4)[C@@H](CCC[n+]1ccccc1)[C@@H]3C [Compound 9, phyllochlorin 3-pyridiniumpropyl iodide] |  |  |  |  |  | 0.006 | 4.91
10 | C=Cc1c(C)c2cc3nc(c(C)c4cc(C)c(cc5nc(cc1[nH]2)C(C)=C5CC)[nH]4)[C@@H](CCCNC(=O)[C@@H](N)C(C)C)[C@@H]3C [Compound 8, phyllochlorin 3-aminopropyl-valine amide hydrochloride] |  |  |  | 11.89 | < 0.1 | 0.09 | 
